Laboratory results: ChEMBL document CHEMBL3885881, “DrugMatrix”

Organism: Rattus norvegicus
Assay: DrugMatrix - Regimen: Daily Repeat
Assay type: toxicity, organism-based, Sprague-Dawley
Parameters: regimen Daily Repeat, gender Male, age 6-8 weeks
Settings: in vivo, po, route oral GAVAGE, vehicle .5 % CMC; for ABSOLUTE BASOPHIL / ABSOLUTE EOSINOPHIL / ABSOLUTE LYMPHOCYTE / ABSOLUTE MONOCYTE / ABSOLUTE SEGMENTED NEUTROPHIL / BASOPHIL / EOSINOPHIL / ERYTHROCYTE COUNT / HEMATOCRIT / HEMOGLOBIN / LEUKOCYTE COUNT / LYMPHOCYTE / MEAN CORPUSCULAR HEMOGLOBIN / MEAN CORPUSCULAR HEMOGLOBIN CONCENTRATION / MEAN CORPUSCULAR VOLUME / MONOCYTE / NEUTROPHIL / NUCLEATED RED BLOOD CELLS / PLATELET COUNT: tissue Blood; for ALANINE AMINOTRANSFERASE / ALBUMIN / ALKALINE PHOSPHATASE / ASPARTATE AMINOTRANSFERASE / BLOOD UREA NITROGEN / CARBON DIOXIDE / CHLORIDE / CHOLESTEROL / CREATINE PHOSPHOKINASE / CREATININE / GLUCOSE / LACTATE DEHYDROGENASE / LIPASE / PHOSPHORUS / POTASSIUM / SODIUM / TOTAL BILIRUBIN / TOTAL PROTEIN / URIC ACID: tissue Plasma
[1] = 25 mg/kg, 120 h, dose level Low, time 5 day
[2] = 1400 mg/kg, 72 h, dose level High, time 3 day
[3] = 1400 mg/kg, 120 h, dose level High, time 5 day

C[C@](O)(CS(=O)(=O)c1ccc(F)cc1)C(=O)Nc1ccc(C#N)c(C(F)(F)F)c1 [(R)-BICALUTAMIDE]
ABSOLUTE BASOPHIL [1]: 0 CELLS/uL | ABSOLUTE EOSINOPHIL [1]: 40.67 CELLS/uL | ABSOLUTE LYMPHOCYTE [1]: 7260.33 CELLS/uL | ABSOLUTE MONOCYTE [1]: 84 CELLS/uL | ABSOLUTE SEGMENTED NEUTROPHIL [1]: 381.67 CELLS/uL | BASOPHIL [1]: 0% | EOSINOPHIL [1]: 0.67% | ERYTHROCYTE COUNT [1]: 5.41 x10E6/uL | HEMATOCRIT [1]: 34.23% | HEMOGLOBIN [1]: 13.2 G/DL | LEUKOCYTE COUNT [1]: 7.77 x10E3/uL | LYMPHOCYTE [1]: 92.33% | MEAN CORPUSCULAR HEMOGLOBIN [1]: 24.4 pg | MEAN CORPUSCULAR HEMOGLOBIN CONCENTRATION [1]: 38.6 G/DL | MEAN CORPUSCULAR VOLUME [1]: 63.13 fL | MONOCYTE [1]: 1.33% | NEUTROPHIL [1]: 5.67% | NUCLEATED RED BLOOD CELLS [1]: 0 /100WBC | PLATELET COUNT [1]: 1128.67 x10E3/uL | ALANINE AMINOTRANSFERASE [1]: 51.67 u/L | ALBUMIN [1]: 4.37 G/DL | ALKALINE PHOSPHATASE [1]: 358.33 u/L | ASPARTATE AMINOTRANSFERASE [1]: 82.33 u/L | BLOOD UREA NITROGEN [1]: 14.67 mg/dL | CARBON DIOXIDE [1]: 26.67 mmol/L | CHLORIDE [1]: 103.67 MEQ/L | CHOLESTEROL [1]: 67.33 mg/dL | CREATINE PHOSPHOKINASE [1]: 179.33 u/L | CREATININE [1]: 0.2 mg/dL | GLUCOSE [1]: 149.33 mg/dL | LACTATE DEHYDROGENASE [1]: 119.67 u/L | LIPASE [1]: 10 u/L | PHOSPHORUS [1]: 11.83 mg/dL | POTASSIUM [1]: 6.23 MEQ/L | SODIUM [1]: 148.07 MEQ/L | TOTAL BILIRUBIN [1]: 0.2 mg/dL | TOTAL PROTEIN [1]: 6.5 G/DL | URIC ACID [1]: 1.37 mg/dL | ABSOLUTE BASOPHIL [2]: 0 CELLS/uL | ABSOLUTE EOSINOPHIL [2]: 0 CELLS/uL | ABSOLUTE LYMPHOCYTE [2]: 11798 CELLS/uL | ABSOLUTE MONOCYTE [2]: 169.33 CELLS/uL | ABSOLUTE SEGMENTED NEUTROPHIL [2]: 799.33 CELLS/uL | BASOPHIL [2]: 0% | EOSINOPHIL [2]: 0% | ERYTHROCYTE COUNT [2]: 5.52 x10E6/uL | HEMATOCRIT [2]: 36.3% | HEMOGLOBIN [2]: 14.03 G/DL | LEUKOCYTE COUNT [2]: 12.77 x10E3/uL | LYMPHOCYTE [2]: 92.67% | MEAN CORPUSCULAR HEMOGLOBIN [2]: 25.5 pg | MEAN CORPUSCULAR HEMOGLOBIN CONCENTRATION [2]: 38.63 G/DL | MEAN CORPUSCULAR VOLUME [2]: 65.97 fL | MONOCYTE [2]: 1.33% | NEUTROPHIL [2]: 6% | NUCLEATED RED BLOOD CELLS [2]: 0 /100WBC | PLATELET COUNT [2]: 1068 x10E3/uL | ALANINE AMINOTRANSFERASE [2]: 48.67 u/L | ALBUMIN [2]: 4.33 G/DL | ALKALINE PHOSPHATASE [2]: 367.67 u/L | ASPARTATE AMINOTRANSFERASE [2]: 67 u/L | BLOOD UREA NITROGEN [2]: 16.67 mg/dL | CARBON DIOXIDE [2]: 23 mmol/L | CHLORIDE [2]: 102 MEQ/L | CHOLESTEROL [2]: 87.33 mg/dL | CREATINE PHOSPHOKINASE [2]: 182.33 u/L | CREATININE [2]: 0.19 mg/dL | GLUCOSE [2]: 155.33 mg/dL | LACTATE DEHYDROGENASE [2]: 84.67 u/L | LIPASE [2]: 11 u/L | PHOSPHORUS [2]: 11.8 mg/dL | POTASSIUM [2]: 7.17 MEQ/L | SODIUM [2]: 143.37 MEQ/L | TOTAL BILIRUBIN [2]: 0.2 mg/dL | TOTAL PROTEIN [2]: 6.23 G/DL | URIC ACID [2]: 1.57 mg/dL | ABSOLUTE BASOPHIL [3]: 0 CELLS/uL | ABSOLUTE EOSINOPHIL [3]: 139 CELLS/uL | ABSOLUTE LYMPHOCYTE [3]: 14390.33 CELLS/uL | ABSOLUTE MONOCYTE [3]: 36 CELLS/uL | ABSOLUTE SEGMENTED NEUTROPHIL [3]: 934.67 CELLS/uL | BASOPHIL [3]: 0% | EOSINOPHIL [3]: 1% | ERYTHROCYTE COUNT [3]: 5.54 x10E6/uL | HEMATOCRIT [3]: 34.93% | HEMOGLOBIN [3]: 13.77 G/DL | LEUKOCYTE COUNT [3]: 15.5 x10E3/uL | LYMPHOCYTE [3]: 92.67% | MEAN CORPUSCULAR HEMOGLOBIN [3]: 24.87 pg | MEAN CORPUSCULAR HEMOGLOBIN CONCENTRATION [3]: 39.4 G/DL | MEAN CORPUSCULAR VOLUME [3]: 63.03 fL | MONOCYTE [3]: 0.33% | NEUTROPHIL [3]: 6% | NUCLEATED RED BLOOD CELLS [3]: 0.33 /100WBC | PLATELET COUNT [3]: 1189.67 x10E3/uL | ALANINE AMINOTRANSFERASE [3]: 51.33 u/L | ALBUMIN [3]: 4.37 G/DL | ALKALINE PHOSPHATASE [3]: 367.67 u/L | ASPARTATE AMINOTRANSFERASE [3]: 74.33 u/L | BLOOD UREA NITROGEN [3]: 16.67 mg/dL | CARBON DIOXIDE [3]: 27.33 mmol/L | CHLORIDE [3]: 102 MEQ/L | CHOLESTEROL [3]: 87.67 mg/dL | CREATINE PHOSPHOKINASE [3]: 121.67 u/L | CREATININE [3]: 0.22 mg/dL | GLUCOSE [3]: 150.33 mg/dL | LACTATE DEHYDROGENASE [3]: 70.67 u/L | LIPASE [3]: 10 u/L | PHOSPHORUS [3]: 12.73 mg/dL | POTASSIUM [3]: 6.81 MEQ/L | SODIUM [3]: 146.27 MEQ/L | TOTAL BILIRUBIN [3]: 0.2 mg/dL | TOTAL PROTEIN [3]: 6.3 G/DL | URIC ACID [3]: 1.8 mg/dL
